From paper PMC8950173 (Pharmaceuticals, 2022) come the findings set out here.

The nature of one series: Radiochemical stability. To be noted: room temperature, more than two hours. The format is physicochemical. How it is done:
Radiochemical stability of [^18F]BA3 was investigated in 0.9% NaCl solution (containing 10% EtOH) and in n-octanol at room temperature for 2 h. Samples were analysed by radio-RP-HPLC (see quality control). The LogD7.4 value of [^18F]BA3 was experimentally determined in n-octanol/phosphate-buffered saline (PBS, pH = 7.4) at room temperature by the shake-flask method as described previously. Briefly, small tracer amounts (~800 kBq) were added to a mixture of 3 mL n-octanol and 3 mL PBS. After shaking for 20 min, the samples were centrifuged (10,000 rpm, 5 min) and 1 mL aliquots of the organic as well as aqueous layer were taken and measured in a gamma counter (1480 WIZARD, Perkin Elmer, Turku, Finland). Another 1 mL aliquot of the organic layer was mixed with 2 mL n-octanol and 3 mL PBS and subjected to the same procedure until constant partition coefficient values had been obtained. The measurement was performed twice in quadruplicate.

Series [1] can be described thus: Dynamic PET/MR scan, brain uptake, baseline. Format: in vivo. On the procedure:
For the time of the experiments, female CD-1 mice (n = 6; 8–15 weeks; 29–43 g) were kept in a dedicated climatic chamber with free access to water and food under a 12:12 h dark:light cycle at a constant temperature (24 °C). The animals were anaesthetized (Anaesthesia Unit U-410, agntho’s, Lidingö, Sweden) with isoflurane (2.0%, 300 mL/min) delivered in a 60% oxygen/40% air mixture (Gas Blender 100 Series, MCQ instruments, Rome, Italy) and their body temperature maintained at 37 °C with a thermal bed system. For baseline studies [^18F]BA3 was injected into the tail vein (n = 2; 6.0 ± 0.6 MBq in 150 µL isotonic saline; 9.2 ± 0.7 nmol/kg; Am: 21 GBq/μmol, EOS) followed by a dynamic 60 min PET/MR scan (Mediso nanoScan®, Budapest, Hungary). Permeability-glycoprotein efflux transporter studies consisted in pre-treatment via i.v. injection of cyclosporine A (50 mg/kg in NaCl/DMSO/kolliphor, 7:1:2, v/v; n = 2) or of vehicle (NaCl/DMSO/kolliphor, 7:1:2, v/v; n = 2) 30 min prior to [^18F]BA3 (6.0 ± 0.9 MBq; 4.9 ± 0.7 nmol/kg; Am: 32–37 GBq/μmol, EOS). Each PET image was corrected for random coincidences, dead time, scatter and attenuation (AC), based on a whole body (WB) MR scan. The reconstruction parameters for the list mode data were 3D-ordered subset expectation maximization (OSEM), 4 iterations, 6 subsets, energy window: 400–600 keV, coincidence mode: 1–5, ring difference: 81. The mice were positioned prone in a special mouse bed (heated up to 37 °C), with the head fixed to a mouth piece for the anaesthetic gas supply with isoflurane in 40% air and 60% oxygen. The PET data were collected by a continuous WB scan during the entire investigation. Following the 60 min PET scan a T1 weighted WB gradient echo sequence (TR/TE: 20/6.4 ms, NEX: 1, FA: 25, FOV: 64 × 64 mm, Matrix: 128 × 128, STh: 0.5 mm) was performed for AC and anatomical orientation. […]. The respective brain regions were identified using the mouse brain atlas template Ma-Benveniste-Mirrione-FDG. The activity data are expressed as mean SUV of the overall ROI.

The next series concerns the target T1, human recombinant HDAC2 (Homo sapiens, UniProt Q92769).
T1 construct: purchased BPS Bioscience Inc. 50052
Description: Inhibition assay HDAC2 (fluorogenic substrate ZMAL). Format: biochemical. The note with it: 60 min preincubation at 25 °C. How it is done: In vitro inhibitory activities against HDAC1−3 and HDAC6 were measured as previously published with minor modifications. […] Subsequently, 50 µL trypsin solution (0.4 mg/mL trypsin in buffer: 50 mM Tris−HCl, pH = 8.0, 100 mM NaCl) was added, followed by additional 30 min of incubation at 37 °C. […] All compounds were tested at least twice in duplicates.

A short description of series [2]: In vivo metabolism (radio-RP-HPLC and radio-MLC of plasma, brain, urine). Also noted: species or system CD-1 mice. The note with it: 30 min p.i. On the procedure:
The radiotracer [^18F]BA3 (~30 MBq in 200 µL isotonic saline) was administered via the tail vein in non-anesthetized female CD-1 mice (n = 2). At 30 min p.i., the animals were anesthetized by isoflurane inhalation and blood was sampled from the retro-orbital plexus. After cervical dislocation, urine was obtained and the brain was isolated. Plasma was obtained by centrifugation of the blood sample (8000× g, 2 min), and the brain was homogenized in ~1 mL distilled water on ice using a glass/PTFE Potter Homogenizer (Potter S Homogenizer, B. Braun Melsungen AG, Melsungen, Germany).
Protein precipitation was performed by addition of an ice-cold MeCN/H2O mixture (9:1, v/v) in a ratio of 4:1 (v/v) of organic solvent to plasma or brain homogenate, respectively. The samples were vortexed for 3 min, equilibrated on ice for 3 min, and centrifuged for 10 min at 10,000 rpm. The precipitates were washed with 100 μL of the solvent mixture and subjected to the same procedure. The combined supernatants were concentrated at 70 °C under argon flow to a final volume of approximately 100 μL and analysed by analytical radio-RP-HPLC with a gradient system (see quality control section). The peak corresponding to the radiotracer in the radio-chromatogram was identified by co-injecting the sample with the reference compound BA3. To determine the percentage of activity in the supernatants compared with total activity, aliquots of each step as well as the precipitates were quantified by an automated gamma counter (1480 WIZARD, Perkin Elmer, Turku, Finland). For plasma and brain samples recoveries of 97% and 95%, respectively, of total activity were obtained.
For the preparation of the MLC samples, 20 µL of mouse plasma was dissolved in 200 µL of an aqueous 200 mM sodium dodecyl sulfate (SDSaq) solution and injected into the MLC system. For brain samples, 400 µL brain homogenate was dissolved in 800 µL 200 mM SDSaq, heated for 5 min at 70 °C and centrifuged for 5 min at 10,000 rpm. The MLC system was built up as earlier described. Separations were performed by using a Reprosil-Pur C18-AQ column (250 × 4.6 mm, 10 µm + 10 mm pre-column) and an eluent mixture of EtOH/100 mM SDSaq/25 mM (NH4)2HPO4 in gradient mode (0–10 min at 100% 100 mM SDSaq, 10–15 min up to 10% EtOH, 15–20 min at 10% EtOH, 20–21 min up to 100% 100 mM SDSaq; 21–30 min at 100% 100 mM SDSaq) at a flow rate of 1.0 mL/min.

Setting [3] is: radio-RP-HPLC, individual values of 2 mice.

T1 sequence (Q92769 whole entry): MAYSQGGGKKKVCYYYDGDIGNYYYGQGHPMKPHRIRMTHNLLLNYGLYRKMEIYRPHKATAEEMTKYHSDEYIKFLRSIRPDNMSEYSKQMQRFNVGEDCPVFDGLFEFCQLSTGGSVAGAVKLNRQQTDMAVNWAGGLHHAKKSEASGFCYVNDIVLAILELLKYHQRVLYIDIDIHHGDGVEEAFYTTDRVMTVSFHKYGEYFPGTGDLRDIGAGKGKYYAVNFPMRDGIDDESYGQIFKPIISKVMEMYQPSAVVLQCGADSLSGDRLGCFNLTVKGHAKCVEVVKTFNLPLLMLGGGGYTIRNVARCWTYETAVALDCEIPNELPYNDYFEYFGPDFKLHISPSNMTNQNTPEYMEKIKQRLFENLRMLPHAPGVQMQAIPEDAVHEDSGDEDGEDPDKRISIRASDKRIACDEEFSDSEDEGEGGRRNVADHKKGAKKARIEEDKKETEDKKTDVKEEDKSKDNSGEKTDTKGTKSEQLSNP

In the case of `CC([18F])C(=O)NCc1ccc(C(=O)Nc2cc(-c3ccsc3)ccc2N)cc1` (stereo not shown) [[^18F]BA3], the “radiochemical purity (stability)” value in the series “Radiochemical stability” (in n-octanol) is more than 99%. The “radiochemical purity (stability)” value in the series “Radiochemical stability” (in saline formulation containing 10% EtOH) is more than 99%. Moreover, in series [1] (at 0.8 min, i.v.), the “brain peak standardized uptake value” is ~ 0.16 SUV. Also, in series [1] (at 15 min, i.v.), the brain uptake plateau was ~ 0.22 SUV. Also, the “brain uptake after washout” value in series [1] (at 60 min after i.v. administration) is on record as ~ 0.16 SUV. Further, the IC50 (in general, the concentration that gives 50% inhibition) at human recombinant HDAC2 came to 39.9 ± 3.2 nM. Also, in series [2] (radio-MLC, mean, n = 2), the “intact radiotracer, share of total activity in brain” value is approximately 24% and the “intact radiotracer, share of total activity in plasma” value is listed as “about 6%”. The “intact radiotracer in urine” value in series [2] (radio-RP-HPLC and radio-MLC) is given as “not detected”. Besides, in series [2] (setting [3]), the “Brain [%] of activity” value is given as 20 / 23 and the “Plasma [%] of activity” value is 3 / 7. Further, in series [2] (radio-RP-HPLC, mean, n = 2), the “share of total activity in brain” value worked out at 21% and the “share of total activity in plasma” value is listed as “about 5%”.
